Source: PMC11912722, “Chikusetsusaponin IVa targeted YAP as an inhibitor to attenuate liver fibrosis and hepatic stellate cell activation” (Chinese Medicine, 2025)

Target: T1, YAP in LX-2 cells (Homo sapiens, UniProt P46937)
T1 construct: gene YAP1; endogenous full-length protein in LX-2 cells, detected by western blot (YAP antibody Cell Signaling 14074 T)
Experiment: CETSA, western blot
Type: cell-based
Conditions: LX-2 cells incubated 24 h with 10 μmol/L CS-IVa, lysed, supernatant heated 45-75 °C for 3 min

T1 sequence (P46937 whole entry): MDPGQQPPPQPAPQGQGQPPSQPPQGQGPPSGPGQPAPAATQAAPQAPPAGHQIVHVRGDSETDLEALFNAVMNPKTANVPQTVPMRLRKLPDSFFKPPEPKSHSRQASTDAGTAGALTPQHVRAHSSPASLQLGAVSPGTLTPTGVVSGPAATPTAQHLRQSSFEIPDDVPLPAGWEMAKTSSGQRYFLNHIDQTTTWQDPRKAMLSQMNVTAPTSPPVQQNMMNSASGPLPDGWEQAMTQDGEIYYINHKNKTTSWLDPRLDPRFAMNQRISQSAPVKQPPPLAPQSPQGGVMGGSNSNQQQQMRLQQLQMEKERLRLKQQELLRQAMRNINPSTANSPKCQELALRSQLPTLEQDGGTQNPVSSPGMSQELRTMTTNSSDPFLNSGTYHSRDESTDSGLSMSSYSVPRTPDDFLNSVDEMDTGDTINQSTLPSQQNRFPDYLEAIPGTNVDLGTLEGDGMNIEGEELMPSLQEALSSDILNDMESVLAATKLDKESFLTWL

## CC1(C)CC[C@]2(C(=O)O[C@@H]3O[C@H](CO)[C@@H](O)[C@H](O)[C@H]3O)CC[C@]3(C)C(=CC[C@@H]4[C@@]5(C)CC[C@H](O[C@@H]6O[C@H](C(=O)O)[C@@H](O)[C@H](O)[C@H]6O)C(C)(C)[C@@H]5CC[C@]43C)[C@@H]2C1 [CS-IVa]
  thermal stability (CETSA): treatment with CS-IVa significantly increased the thermal stability of YAP
